Laboratory results published in article PMC10017428, “Structure of VanS from vancomycin-resistant enterococci: A sensor kinase with weak ATP binding” (The Journal of Biological Chemistry, 2023).

Experiments:
VanSA CA domain [1] = biological target: T1, VanSA CA domain (Enterococcus faecium, UniProt Q06240); assay: biochemical
T1 construct: gene vanS

EnvZ CA domain = EnvZ CA domain (Escherichia coli, UniProt P0AEJ4); assay: biochemical
VanSC CA domain [2] = biological target: T2, VanSC CA domain (Enterococcus gallinarum, UniProt Q9KJT3); assay: biochemical
VanSA CA domain [3] = biological target: T1, VanSA CA domain; assay: TNP-ATP displacement, fluorescence; type: binding; conditions: 50 mM Tris-Cl pH 7.5, 50 mM KCl, 5 mM MgCl2, 10 μM TNP-ATP; competitive
VanSC CA domain [4] = biological target: T2, VanSC CA domain; assay: TNP-ATP displacement, fluorescence; type: binding; conditions: 50 mM Tris-Cl pH 7.5, 50 mM KCl, 5 mM MgCl2, 10 μM TNP-ATP; competitive

T1 sequence (Q06240 221-384): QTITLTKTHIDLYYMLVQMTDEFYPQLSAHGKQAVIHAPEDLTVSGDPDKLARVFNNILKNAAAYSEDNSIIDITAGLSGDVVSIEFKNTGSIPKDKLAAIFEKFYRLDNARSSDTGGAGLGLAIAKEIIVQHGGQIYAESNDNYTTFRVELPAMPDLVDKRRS
T2 sequence (Q9KJT3 208-361): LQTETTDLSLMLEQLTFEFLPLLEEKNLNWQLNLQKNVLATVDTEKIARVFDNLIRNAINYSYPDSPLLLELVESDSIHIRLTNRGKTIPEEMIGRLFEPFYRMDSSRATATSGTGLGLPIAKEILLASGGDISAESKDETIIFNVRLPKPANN
Sequence of EnvZ CA domain (P0AEJ4 289-450): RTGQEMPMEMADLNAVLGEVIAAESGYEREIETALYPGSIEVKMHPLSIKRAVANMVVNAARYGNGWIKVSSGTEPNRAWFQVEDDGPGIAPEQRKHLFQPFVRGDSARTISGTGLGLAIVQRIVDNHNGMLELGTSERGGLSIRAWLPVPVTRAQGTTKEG

**Q.** With Nc1ncnc2c1ncn2[C@@H]1O[C@H](COP(=O)(O)OP(=O)(O)OP(=O)(O)O)[C@@H](O)[C@H]1O [ATP] as the molecule, how does the Kd (VanSA CA domain [1]) read?
**A.** 3.948 ± 0.001 mM

**Q.** And the Kd (EnvZ CA domain)?
**A.** 0.0833 ± 0.0002 mM

**Q.** And the Kd (VanSC CA domain [2])?
**A.** 3.128 ± 0.0004 mM

**Q.** What does the source list for Nc1nc2c(ncn2[C@@H]2O[C@H](COP(=O)(O)OP(=O)(O)OP(=O)(O)O)[C@@H](O)[C@H]2O)c(=O)[nH]1 [GTP]?
**A.** TNP-ATP displacement, fluorescence (VanSA CA domain [3]): GTP bound less tightly than ATP to both VanSA and VanSC; TNP-ATP displacement, fluorescence (VanSC CA domain [4]): GTP bound less tightly than ATP to both VanSA and VanSC
